Laboratory results taken from publication PMC11274715 (2024).

Legend:
Assay in all cases: ITC
Details in all cases: 40 mM NaCl, 5 mM MgCl2; 25 mM Tris-HCl pH 7.5, 25 °C; single-site model
[1] = test system: SAM-VI AP RNA (RNA, riboswitch) CGUAUCAUUGUGCCUUAUCCGCAAAAGGCGGGUAGGGCGAUAAGUCCGAAAGAGGGAUGAUAUG
[2] = test system: SAM-VI WT RNA (RNA, riboswitch) ACAACAGAAUGAACCAACGUAUCAUUGUGCCUUAUCCGCAAAAGGCGGGUAGGGCGAUAAGUCCGAAAGAGGGAUGAUAUG
[3] = test system: SAM-VI M2 RNA (RNA, riboswitch) ACAACAGAAUGAACCAACGUAUCAUUGUGCCUUAUCCGCAAAAGGCGGGUAGGGCGAUAAGUCCGAAAGAGGGAUGAU

- affinity [1]: 5.33 µM
- affinity [2]: 8.95 µM
- Kd [3]: 419.95 µM
Structure (SMILES): C[S+](CC[C@H](N)C(=O)O)C[C@H]1O[C@@H](n2cnc3c(N)ncnc32)[C@H](O)[C@@H]1O (stereo partly drawn)
